From ChEMBL document CHEMBL5653615 (J Biol Chem, 2013)

Legend:
[1] = target: T1, Serine/threonine-protein kinase Nek9 (Homo sapiens) (UniProt Q8TD19); experiment: Inhibition of human NEK9 at 1.82 nM by HotSpot assay relative to control
T1 sequence (whole entry): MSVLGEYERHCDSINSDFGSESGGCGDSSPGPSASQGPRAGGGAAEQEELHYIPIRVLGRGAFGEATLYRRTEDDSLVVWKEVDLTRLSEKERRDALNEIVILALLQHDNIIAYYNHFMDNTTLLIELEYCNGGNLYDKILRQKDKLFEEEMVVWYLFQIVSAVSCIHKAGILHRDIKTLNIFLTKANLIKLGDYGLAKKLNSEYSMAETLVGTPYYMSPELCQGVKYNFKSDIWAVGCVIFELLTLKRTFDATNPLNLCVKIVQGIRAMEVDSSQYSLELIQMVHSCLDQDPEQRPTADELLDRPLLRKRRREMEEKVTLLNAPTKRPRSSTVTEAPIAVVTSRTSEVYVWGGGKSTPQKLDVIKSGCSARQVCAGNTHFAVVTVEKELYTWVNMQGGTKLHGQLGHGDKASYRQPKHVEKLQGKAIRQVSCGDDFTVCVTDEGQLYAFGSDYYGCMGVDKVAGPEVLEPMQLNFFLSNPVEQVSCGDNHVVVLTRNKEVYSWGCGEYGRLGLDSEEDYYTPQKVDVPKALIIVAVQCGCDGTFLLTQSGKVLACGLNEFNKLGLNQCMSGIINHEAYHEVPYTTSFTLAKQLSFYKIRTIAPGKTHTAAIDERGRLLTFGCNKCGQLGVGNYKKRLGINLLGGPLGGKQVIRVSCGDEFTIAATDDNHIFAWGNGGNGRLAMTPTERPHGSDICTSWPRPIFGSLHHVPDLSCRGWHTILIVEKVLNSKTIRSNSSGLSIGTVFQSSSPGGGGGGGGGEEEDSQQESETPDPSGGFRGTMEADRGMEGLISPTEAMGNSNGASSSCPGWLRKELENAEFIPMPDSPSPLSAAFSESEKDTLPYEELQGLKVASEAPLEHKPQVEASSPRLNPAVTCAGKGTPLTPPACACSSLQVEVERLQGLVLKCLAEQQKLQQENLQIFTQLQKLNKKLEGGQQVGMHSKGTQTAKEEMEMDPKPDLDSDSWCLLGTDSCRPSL

[2] = target: Leukocyte tyrosine kinase receptor (Homo sapiens) (UniProt P29376); experiment: Inhibition of human LTK at 1.82 nM by HotSpot assay relative to control
Sequence of Leukocyte tyrosine kinase receptor (Homo sapiens) (P29376 whole entry): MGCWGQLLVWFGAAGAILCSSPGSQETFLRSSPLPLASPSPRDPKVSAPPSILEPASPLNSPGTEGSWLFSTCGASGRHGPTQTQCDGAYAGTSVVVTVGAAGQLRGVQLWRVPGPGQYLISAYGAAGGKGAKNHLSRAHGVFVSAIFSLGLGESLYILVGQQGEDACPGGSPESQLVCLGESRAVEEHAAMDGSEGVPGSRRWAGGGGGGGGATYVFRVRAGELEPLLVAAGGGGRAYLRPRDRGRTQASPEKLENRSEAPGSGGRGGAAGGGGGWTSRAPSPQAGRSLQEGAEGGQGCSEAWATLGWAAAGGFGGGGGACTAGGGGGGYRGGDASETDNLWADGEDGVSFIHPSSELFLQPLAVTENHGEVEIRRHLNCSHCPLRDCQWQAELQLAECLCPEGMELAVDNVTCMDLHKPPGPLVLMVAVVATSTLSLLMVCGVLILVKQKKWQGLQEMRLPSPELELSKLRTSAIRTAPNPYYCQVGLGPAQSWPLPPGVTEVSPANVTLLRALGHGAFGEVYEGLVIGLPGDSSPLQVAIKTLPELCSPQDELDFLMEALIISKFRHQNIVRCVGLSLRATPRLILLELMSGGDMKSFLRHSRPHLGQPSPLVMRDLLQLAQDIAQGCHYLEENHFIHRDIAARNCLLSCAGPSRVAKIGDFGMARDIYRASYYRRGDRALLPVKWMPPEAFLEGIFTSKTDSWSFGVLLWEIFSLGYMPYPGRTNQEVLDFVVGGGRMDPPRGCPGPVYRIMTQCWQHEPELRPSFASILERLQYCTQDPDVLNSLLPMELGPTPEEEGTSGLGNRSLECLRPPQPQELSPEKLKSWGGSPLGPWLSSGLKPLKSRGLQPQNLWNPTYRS

[3] = target: Serine/threonine-protein kinase pim-3 (Homo sapiens) (UniProt Q86V86); experiment: Inhibition of human PIM3 at 1.82 nM by HotSpot assay relative to control
[4] = target: T2, Serine/threonine-protein kinase Chk1 (Homo sapiens) (UniProt O14757); experiment: Inhibition of human CHK1 at 1.82 nM by HotSpot assay relative to control
T2 sequence (whole entry): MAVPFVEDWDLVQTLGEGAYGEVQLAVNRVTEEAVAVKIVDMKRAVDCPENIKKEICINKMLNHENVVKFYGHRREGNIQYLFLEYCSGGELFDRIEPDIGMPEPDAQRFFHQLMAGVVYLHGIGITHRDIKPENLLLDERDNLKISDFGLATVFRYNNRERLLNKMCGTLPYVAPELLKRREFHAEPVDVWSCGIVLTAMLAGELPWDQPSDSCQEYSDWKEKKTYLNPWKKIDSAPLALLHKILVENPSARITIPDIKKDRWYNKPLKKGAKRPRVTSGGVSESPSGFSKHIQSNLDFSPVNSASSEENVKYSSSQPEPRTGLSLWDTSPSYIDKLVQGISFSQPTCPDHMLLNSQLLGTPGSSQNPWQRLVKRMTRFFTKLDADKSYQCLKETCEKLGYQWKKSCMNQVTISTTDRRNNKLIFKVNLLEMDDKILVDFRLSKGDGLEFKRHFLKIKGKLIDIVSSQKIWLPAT

[5] = target: Casein kinase I isoform gamma-1 (Homo sapiens) (UniProt Q9HCP0); experiment: Inhibition of human CK1g1 at 1.82 nM by HotSpot assay relative to control
Sequence of Casein kinase I isoform gamma-1 (Homo sapiens) (Q9HCP0 whole entry, looked up, canonical isoform): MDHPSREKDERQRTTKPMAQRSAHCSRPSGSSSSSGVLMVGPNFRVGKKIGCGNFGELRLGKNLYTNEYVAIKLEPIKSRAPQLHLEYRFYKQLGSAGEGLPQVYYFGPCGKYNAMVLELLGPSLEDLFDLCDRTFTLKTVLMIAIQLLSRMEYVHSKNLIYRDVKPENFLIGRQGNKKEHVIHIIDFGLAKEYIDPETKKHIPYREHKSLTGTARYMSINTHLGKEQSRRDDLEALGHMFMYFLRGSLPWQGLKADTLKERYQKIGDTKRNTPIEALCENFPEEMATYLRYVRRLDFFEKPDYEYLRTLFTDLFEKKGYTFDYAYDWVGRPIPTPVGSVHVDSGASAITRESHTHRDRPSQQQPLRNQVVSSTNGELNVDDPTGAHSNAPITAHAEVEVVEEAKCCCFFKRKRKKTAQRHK

[6] = target: CDK1/Cyclin A (Homo sapiens) (UniProt P06493+P20248); experiment: Inhibition of human CDK1/cyclin A at 1.82 nM by HotSpot assay relative to control; assay type: protein-complex assay
Sequence of CDK1/Cyclin A (Homo sapiens) (P06493 whole entry, looked up): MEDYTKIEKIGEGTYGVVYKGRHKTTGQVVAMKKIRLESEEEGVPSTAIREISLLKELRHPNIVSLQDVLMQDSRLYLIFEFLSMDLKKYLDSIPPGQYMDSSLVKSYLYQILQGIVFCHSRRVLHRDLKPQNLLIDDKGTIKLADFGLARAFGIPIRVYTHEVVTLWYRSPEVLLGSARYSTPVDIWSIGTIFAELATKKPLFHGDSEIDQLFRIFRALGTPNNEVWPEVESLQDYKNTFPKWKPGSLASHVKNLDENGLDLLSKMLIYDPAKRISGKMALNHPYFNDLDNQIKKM
Sequence of CDK1/Cyclin A (Homo sapiens) (P20248 whole entry, looked up): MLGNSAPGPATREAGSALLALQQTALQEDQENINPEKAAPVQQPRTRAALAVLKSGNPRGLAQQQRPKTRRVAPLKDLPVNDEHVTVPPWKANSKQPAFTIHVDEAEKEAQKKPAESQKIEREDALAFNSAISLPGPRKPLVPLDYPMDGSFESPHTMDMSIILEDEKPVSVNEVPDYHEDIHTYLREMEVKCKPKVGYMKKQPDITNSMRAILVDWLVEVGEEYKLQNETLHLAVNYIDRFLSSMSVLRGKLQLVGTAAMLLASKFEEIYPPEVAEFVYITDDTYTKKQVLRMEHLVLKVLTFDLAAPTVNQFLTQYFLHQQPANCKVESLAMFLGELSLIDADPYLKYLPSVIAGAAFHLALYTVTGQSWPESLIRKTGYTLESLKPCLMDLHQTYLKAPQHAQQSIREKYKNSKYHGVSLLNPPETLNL

[7] = target: Interleukin-1 receptor-associated kinase 1 (Homo sapiens) (UniProt P51617); experiment: Inhibition of human IRAK1 at 18.6 nM by HotSpot assay relative to control
Sequence of Interleukin-1 receptor-associated kinase 1 (Homo sapiens) (P51617 whole entry, looked up): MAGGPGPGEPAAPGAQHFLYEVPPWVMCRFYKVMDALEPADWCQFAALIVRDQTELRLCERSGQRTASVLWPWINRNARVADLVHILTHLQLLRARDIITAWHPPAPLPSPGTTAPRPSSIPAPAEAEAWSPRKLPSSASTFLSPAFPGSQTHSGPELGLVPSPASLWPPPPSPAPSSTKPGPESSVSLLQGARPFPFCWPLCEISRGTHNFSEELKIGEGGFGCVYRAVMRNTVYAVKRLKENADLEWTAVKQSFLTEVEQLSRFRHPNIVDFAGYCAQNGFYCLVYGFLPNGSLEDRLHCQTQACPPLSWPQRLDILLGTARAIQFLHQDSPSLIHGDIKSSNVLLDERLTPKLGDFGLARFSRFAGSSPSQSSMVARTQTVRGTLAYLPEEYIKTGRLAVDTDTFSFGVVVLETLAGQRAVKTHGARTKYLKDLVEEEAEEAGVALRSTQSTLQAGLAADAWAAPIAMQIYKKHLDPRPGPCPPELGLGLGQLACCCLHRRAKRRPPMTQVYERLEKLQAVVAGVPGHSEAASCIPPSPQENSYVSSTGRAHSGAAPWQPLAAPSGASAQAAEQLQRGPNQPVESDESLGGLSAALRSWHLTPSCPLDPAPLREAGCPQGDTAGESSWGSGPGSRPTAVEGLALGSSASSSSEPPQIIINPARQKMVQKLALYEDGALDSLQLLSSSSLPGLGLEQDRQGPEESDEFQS

[8] = target: T3, Mitogen-activated protein kinase 13 (Homo sapiens) (UniProt O15264); experiment: Inhibition of human MAPK13 at 18.6 nM by HotSpot assay relative to control
T3 sequence (whole entry): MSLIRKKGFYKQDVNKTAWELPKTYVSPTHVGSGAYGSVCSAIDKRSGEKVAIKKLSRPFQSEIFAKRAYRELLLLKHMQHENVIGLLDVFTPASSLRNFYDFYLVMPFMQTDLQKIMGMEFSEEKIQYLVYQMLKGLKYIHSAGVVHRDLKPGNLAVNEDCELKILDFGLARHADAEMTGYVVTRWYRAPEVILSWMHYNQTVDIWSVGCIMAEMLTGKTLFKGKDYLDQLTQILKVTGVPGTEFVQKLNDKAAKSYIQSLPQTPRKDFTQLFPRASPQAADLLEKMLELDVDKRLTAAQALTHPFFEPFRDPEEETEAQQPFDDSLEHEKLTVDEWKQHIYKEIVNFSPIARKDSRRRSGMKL

| SMILES | inhibition [1] [%] | inhibition [2] [%] | inhibition [3] [%] | inhibition [4] [%] | inhibition [5] [%] | inhibition [6] [%] | inhibition [7] [%] | inhibition [8] [%] |
| --- | --- | --- | --- | --- | --- | --- | --- | --- |
| C[C@@]1(C(=O)Nc2ccc(F)nc2)CCCN1c1nc(Nc2cc(C3CC3)n[nH]2)c2cccn2n1 | -1.18 | -7.41 | 19.1 | -4.39 | -3.54 | -1.79 | – | – |
| C[C@]1(O)C[C@@H](c2nc(-c3ccc4ccc(-c5ccccc5)nc4c3)c3c(N)nccn32)C1 | – | – | – | – | – | – | -8.8 | -4.06 |
